One assay relates to Streptococcus pneumoniae. In words: Antibacterial activity against Streptococcus pneumoniae at 64 ug/ml after 20 hrs. Type of assay: functional, organism-based.
The target in assay [1] is T1, 3-oxoacyl-[acyl-carrier-protein] synthase 2 (Staphylococcus aureus, UniProt Q5TKS0).
T1 sequence (Q5TKS0 whole entry): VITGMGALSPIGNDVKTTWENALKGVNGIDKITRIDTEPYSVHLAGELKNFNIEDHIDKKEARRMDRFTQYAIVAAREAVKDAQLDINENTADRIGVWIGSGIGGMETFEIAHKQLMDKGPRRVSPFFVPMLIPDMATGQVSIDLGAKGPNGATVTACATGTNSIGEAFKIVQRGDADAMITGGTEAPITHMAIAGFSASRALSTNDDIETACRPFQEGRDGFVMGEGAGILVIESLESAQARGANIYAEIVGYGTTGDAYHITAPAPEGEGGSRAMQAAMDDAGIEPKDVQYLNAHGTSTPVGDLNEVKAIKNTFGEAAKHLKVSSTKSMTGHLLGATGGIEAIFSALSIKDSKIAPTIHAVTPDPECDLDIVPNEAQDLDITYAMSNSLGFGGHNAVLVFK
In words: (§1) Inhibition of Staphylococcus aureus […] assessed as [2-14C]-malonyl CoA incorporation after 90 mins by cell free-based scintillation counting.

Assay [2] relates to Staphylococcus aureus. Kind of assay: Antibacterial activity against Staphylococcus aureus at 64 ug/ml after 20 hrs. The class given is functional, organism-based.
For a further assay, the system named is Enterococcus faecalis. In words: Antibacterial activity against Enterococcus faecalis at 64 ug/ml after 20 hrs. Type of assay: functional, organism-based.
In a further assay the test system is Enterococcus faecium. Kind of assay: Antibacterial activity against Enterococcus faecium at 64 ug/ml after 20 hrs. The class given is functional, organism-based.
Another assay concerns Escherichia coli. Kind of assay: Antibacterial activity against Escherichia coli at 64 ug/ml after 20 hrs. Type of assay: functional, organism-based.
The next assay relates to Haemophilus influenzae. Kind of assay: Antibacterial activity against Haemophilus influenzae at 64 ug/ml after 20 hrs. The class given is functional, organism-based.
Assay [3] deals with Staphylococcus aureus. In words: Antibacterial activity against Staphylococcus aureus RN450 expressing S1-1941 plasmid carrying antisense FabF2p RNA assessed as 5 mm differential zone clearance measured as minimum concentration after 18 hrs. Type of assay: functional.
The target of assay [4] is T2, 3-oxoacyl-[acyl-carrier-protein] synthase 2 (Staphylococcus aureus) (UniProt Q5TKS0).
T2 sequence (whole entry): T1 sequence (Q5TKS0 whole entry)
The description is as §1.

Activity calls are given as the source filed them. The calls are words filed in the database; no cut-off is given here. Where only a bound is given, the exact number is not on record here.

As to `C[C@]12O[C@H]3CC1C[C@@]1(C=C(O)C(=O)[C@@](C)(CCC(=O)Nc4c(O)ccc(C(=O)O)c4O)C31)C2O` (stereo partly specified), the outcome in the assay with Streptococcus pneumoniae, in the assay on Staphylococcus aureus [2], in the assay on Enterococcus faecalis, in the assay with Enterococcus faecium, in the assay on Escherichia coli and with Haemophilus influenzae was inactive. Moreover, the IC50 in assay [1] is 33.8 µM. In the assay with Staphylococcus aureus [3], the Activity was below 20 µg/mL.
As for `C[C@@]12C[C@@]34C=CC(=O)[C@@](C)(CCC(=O)O)C3[C@H](CC1C4)O2` (stereo partly specified), the outcome in the assay with Streptococcus pneumoniae, with Staphylococcus aureus [2], with Enterococcus faecalis, in the assay on Enterococcus faecium, with Escherichia coli and with Haemophilus influenzae was inactive. The inhibition result in assay [4] was “inactive”.
On to `C=C1CC23C=CC(=O)[C@@](C)(CCC(=O)Nc4c(O)ccc(C(=O)O)c4O)C2CC1C[C@H]3O` (stereo partly specified), for which the result in the assay on Streptococcus pneumoniae, in the assay with Staphylococcus aureus [2], in the assay on Enterococcus faecalis, in the assay on Enterococcus faecium, in the assay with Escherichia coli and with Haemophilus influenzae was inactive. The inhibition result in assay [4] was “inactive”.
As to `COC(=O)[C@H](CCC(N)=O)NC(=O)/C(C)=C/CC[C@]1(C)C(=O)C=C[C@]23CC4C[C@H](O[C@]4(C)C2)C31` (stereo partly specified), the result in the assay with Streptococcus pneumoniae, in the assay on Staphylococcus aureus [2], with Enterococcus faecalis, in the assay on Enterococcus faecium, in the assay with Escherichia coli and in the assay with Haemophilus influenzae was inactive. Further, in [4], the inhibition result was “inactive”.
With `COC(=O)c1ccc(O)c(NC(=O)CC[C@]2(C)C(=O)C=CC34CC(CCC32)C(O)(CO)C4)c1O` (stereo partly specified), the result in the assay on Streptococcus pneumoniae, with Staphylococcus aureus [2], in the assay on Enterococcus faecalis, in the assay on Enterococcus faecium, with Escherichia coli and in the assay on Haemophilus influenzae was inactive. Also, the inhibition result in [4] was “inactive”.
For the compound `C[C@@]1(CCC(=O)Nc2c(O)ccc(C(=O)O)c2O)C(=O)C=CC23CC(CCC21)C(O)(CO)C3` (stereo partly specified), the outcome with Streptococcus pneumoniae, in the assay on Staphylococcus aureus [2], in the assay on Enterococcus faecalis, in the assay on Enterococcus faecium, with Escherichia coli and in the assay with Haemophilus influenzae was inactive. Besides, the inhibition entry in [4] is “inactive”.
Regarding `COC(=O)c1ccc(O)c(NC(=O)CC[C@]2(C)C(=O)C=CC34CC5CC(OC5(CO)C3)C42)c1O` (stereo partly specified) [PLATENSIMYCIN A4 METHYL ESTER], the result in the assay on Streptococcus pneumoniae, in the assay with Staphylococcus aureus [2], with Enterococcus faecalis, in the assay on Enterococcus faecium, with Escherichia coli and with Haemophilus influenzae was inactive. Also, the inhibition entry in [4] was “inactive”. Also, the Activity in the assay with Staphylococcus aureus [3] came out at 100 µg/mL.
Consider `COC(=O)CC[C@]1(C)C(=O)C=C[C@]23CC4C[C@H](O[C@]4(C)C2)C31` (stereo partly specified), for which the result in the assay with Streptococcus pneumoniae, in the assay on Staphylococcus aureus [2], with Enterococcus faecalis, in the assay on Enterococcus faecium, in the assay on Escherichia coli and in the assay with Haemophilus influenzae was inactive. The inhibition entry in [4] was “inactive”.
In the case of `C=C1C2CCC3(C=CC(=O)[C@@](C)(CCC(=O)Nc4c(O)ccc(C(=O)O)c4O)C3C2)[C@H]1O` (stereo partly specified), the outcome in the assay with Streptococcus pneumoniae, in the assay with Staphylococcus aureus [2], in the assay on Enterococcus faecalis, in the assay on Enterococcus faecium, in the assay with Escherichia coli and with Haemophilus influenzae was inactive. Moreover, the inhibition result in [4] is “inactive”.
Consider `C=C1CC23C=CC(=O)[C@@](C)(CCC(=O)Nc4c(O)ccc(C(=O)OC)c4O)C2CC1[C@@H](O)C3` (stereo partly specified), for which the outcome in the assay on Streptococcus pneumoniae, with Staphylococcus aureus [2], with Enterococcus faecalis, with Enterococcus faecium, with Escherichia coli and in the assay with Haemophilus influenzae was inactive. Also, the inhibition entry in assay [4] was “inactive”.
For the compound `COC(=O)c1ccc(O)c(NC(=O)CC[C@]2(C)C(=O)C[C@@H](O)[C@]34CC5C[C@H](O[C@]5(C)C3)C42)c1O` (stereo partly specified), the outcome with Streptococcus pneumoniae, in the assay on Staphylococcus aureus [2], in the assay on Enterococcus faecalis, in the assay with Enterococcus faecium, in the assay on Escherichia coli and in the assay on Haemophilus influenzae was inactive. Further, in [4], the inhibition result is “inactive”.
Regarding `C=C1CC23C=CC(=O)[C@@](C)(CCC(=O)Nc4c(O)ccc(C(=O)OC)c4O)C2CC1C[C@H]3O` (stereo partly specified), the result with Streptococcus pneumoniae, with Staphylococcus aureus [2], in the assay with Enterococcus faecalis, in the assay on Enterococcus faecium, with Escherichia coli and in the assay on Haemophilus influenzae was inactive. Also, the inhibition entry in [4] was “inactive”.
In the case of `C[C@@]1(CCC(=O)Nc2c(O)ccc(C(=O)O)c2O)C(=O)C=CC23CCC(CC21)[C@@](O)(CO)C3` (stereo partly specified), the result in the assay on Streptococcus pneumoniae, with Staphylococcus aureus [2], in the assay on Enterococcus faecalis, with Enterococcus faecium, in the assay on Escherichia coli and in the assay with Haemophilus influenzae was inactive. Further, in assay [4], the inhibition entry was “inactive”.
For `C=C1C2CCC3(C=CC(=O)[C@@](C)(CCC(=O)Nc4c(O)ccc(C(=O)OC)c4O)C3C2)[C@H]1O` (stereo partly specified), the outcome in the assay on Streptococcus pneumoniae, with Staphylococcus aureus [2], in the assay on Enterococcus faecalis, in the assay with Enterococcus faecium, in the assay with Escherichia coli and with Haemophilus influenzae was inactive. The inhibition entry in [4] was “inactive”.
For `COCC(O)COc1ccc(C(C)(C)c2ccc(OCC(O)CO)cc2)cc1` (stereo unspecified), the outcome in the assay on Streptococcus pneumoniae, with Staphylococcus aureus [2], in the assay with Enterococcus faecalis, in the assay with Enterococcus faecium, in the assay with Escherichia coli and in the assay on Haemophilus influenzae was inactive. Also, the inhibition entry in [4] was “inactive”.
With `C/C(=C\CC[C@]1(C)C(=O)C=C[C@]23CC4C[C@H](O[C@]4(C)C2)C31)C(=O)N[C@@H](CCC(N)=O)C(=O)O` (stereo partly specified), the result with Streptococcus pneumoniae, with Staphylococcus aureus [2], in the assay on Enterococcus faecalis, with Enterococcus faecium, with Escherichia coli and in the assay on Haemophilus influenzae was inactive. Further, in assay [4], the inhibition entry was “inactive”.
On to `C[C@@]12CC34C=CC(=O)[C@@](C)(CCC(=O)Nc5c(O)ccc(C(=O)O)c5O)C3[C@H](CC1[C@H]4O)O2` (stereo partly specified), for which the result in the assay with Streptococcus pneumoniae, in the assay on Staphylococcus aureus [2], with Enterococcus faecalis, in the assay on Enterococcus faecium, in the assay on Escherichia coli and with Haemophilus influenzae was inactive. Moreover, the inhibition result in [4] was “inactive”.

Source of the values: ChEMBL document CHEMBL1773043, “Platensimycin and platencin congeners from Streptomyces platensis” (J Nat Prod, 2011).
